Data from paper PMC3368261, “Substituted aminopyrimidine protein kinase B (PknB) inhibitors show activity against Mycobacterium tuberculosis” (Bioorganic & Medicinal Chemistry Letters, 2012).
≈ marks a conversion by molar mass, not a printed value. Read-outs that look alike come from different tables or passages of the source.

What was measured:
PknB = PknB (Mycobacterium tuberculosis, UniProt P9WI81); test: PknB enzyme inhibition, in vitro phosphorylation of the substrate GarA; type: biochemical
M. tuberculosis = test: Alamar blue cellular assay against M. tuberculosis (MIC); type: cell-based; details: Mycobacterium tuberculosis
physchem = type: physicochemical
[1] = tested on: 76-member human kinase panel; type: biochemical; details: 10 μM inhibitor concentration, 76 kinases
[2] = assay conditions described in Ref. [8] (Table 5: Ref. [10]), read-out: PknB IC50

Chain of PknB (P9WI81 whole entry): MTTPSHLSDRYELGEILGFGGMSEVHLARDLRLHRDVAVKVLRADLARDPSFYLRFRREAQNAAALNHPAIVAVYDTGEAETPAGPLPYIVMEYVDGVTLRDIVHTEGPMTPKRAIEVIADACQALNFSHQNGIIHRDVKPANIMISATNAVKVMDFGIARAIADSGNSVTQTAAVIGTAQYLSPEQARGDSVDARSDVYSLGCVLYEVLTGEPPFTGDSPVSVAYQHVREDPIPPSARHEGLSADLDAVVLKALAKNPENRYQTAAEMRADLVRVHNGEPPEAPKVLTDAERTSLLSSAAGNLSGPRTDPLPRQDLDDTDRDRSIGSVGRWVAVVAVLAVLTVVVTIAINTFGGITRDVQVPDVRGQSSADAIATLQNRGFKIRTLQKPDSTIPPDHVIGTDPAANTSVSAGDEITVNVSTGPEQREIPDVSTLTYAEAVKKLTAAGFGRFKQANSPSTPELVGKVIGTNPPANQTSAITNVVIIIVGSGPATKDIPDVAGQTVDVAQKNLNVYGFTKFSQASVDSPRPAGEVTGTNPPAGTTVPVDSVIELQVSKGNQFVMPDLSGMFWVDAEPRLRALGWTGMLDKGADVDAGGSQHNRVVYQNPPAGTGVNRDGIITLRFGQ

Structure (SMILES)	IC50 (PknB; [2]) [nM]	MIC (M. tuberculosis) [µM]	further results
Cc1cc(Nc2nc(-c3ccncc3)nc3ccccc23)n[nH]1 [Compound 1]			IC50 (PknB; high throughput screen, GarA phosphorylation, read-out: PknB inhibition (HTS hit)): 1350 nM
c1ccc2c(Nc3cc(C4CC4)[nH]n3)nc(-c3ccncc3)nc2c1 [Compound 5a]			improvement in PknB binding affinity (PknB): fourfold improvement in binding affinity; IC50 (PknB; read-out: PknB IC50): 322 nM
Fc1ccc(-c2nc(Nc3cc[nH]n3)c3ccccc3n2)cc1 [Compound 5b]	453		
Cc1cc(Nc2nc(-c3ccc(F)cc3)nc3ccccc23)n[nH]1 [Compound 5c]	1160		
Fc1ccc(-c2nc(Nc3cc(C4CC4)[nH]n3)c3ccccc3n2)cc1 [Compound 5d]	223		
c1ccc(-c2nc(Nc3cc(C4CC4)[nH]n3)c3ccccc3n2)cc1 [Compound 5e]	440		
c1ccc2c(Nc3cc(C4CC4)[nH]n3)nc(NC3CCCCC3)nc2c1 [Compound 5f]			IC50 (PknB; read-out: PknB IC50): 107 nM
c1ccc2c(Nc3cc(C4CC4)[nH]n3)nc(NCC3CC3)nc2c1 [Compound 5g]	428		
Fc1ccc(-c2nccc(Nc3cc(C4CC4)[nH]n3)n2)cc1 [Compound 8a]	375	> 500	
NC(=O)c1cccc(-c2nccc(Nc3cc(C4CC4)[nH]n3)n2)c1 [Compound 8b]	384	63 (≈ 20.2 µg/mL)	
CS(=O)(=O)Nc1cccc(-c2nccc(Nc3cc(C4CC4)[nH]n3)n2)c1 [Compound 8c]	393	31 (≈ 11.5 µg/mL)	
CS(=O)(=O)c1cccc(-c2nccc(Nc3cc(C4CC4)[nH]n3)n2)c1 [Compound 8d]	86	63 (≈ 22.4 µg/mL)	
CS(=O)(=O)NCc1ccc(-c2nccc(Nc3cc(C4CC4)[nH]n3)n2)cc1 [Compound 8e]	241	63 (≈ 24.2 µg/mL)	
N#Cc1cccc(-c2nccc(Nc3cc(C4CC4)[nH]n3)n2)c1 [Compound 8f]		125 (≈ 37.8 µg/mL)	IC50 (PknB; read-out: PknB IC50): 87 nM
c1cncc(-c2nccc(Nc3cc(C4CC4)[nH]n3)n2)c1 [Compound 8g]	202	125 (≈ 34.8 µg/mL)	
c1cc(Nc2cc(C3CC3)[nH]n2)nc(NC2CCCCC2)n1 [Compound 8h]	84	63 (≈ 18.8 µg/mL)	
CC(C)CCNc1nccc(Nc2cc(C3CC3)[nH]n2)n1 [Compound 8i]	354	63 (≈ 18 µg/mL)	
c1ccc(CNc2nccc(Nc3cc(C4CC4)[nH]n3)n2)cc1 [Compound 8j]	715	125 (≈ 38.3 µg/mL)	

Structure (SMILES)	IC50 (PknB; [2]) [nM]	MIC (M. tuberculosis) [µM]	further results
Fc1cccc(CCNc2nccc(Nc3cc(C4CC4)[nH]n3)n2)c1 [Compound 8k]		63 (≈ 21.3 µg/mL)	IC50 (PknB; read-out: PknB IC50): 74 nM
Clc1ccccc1CCNc1nccc(Nc2cc(C3CC3)[nH]n2)n1 [Compound 8l]	64	125 (≈ 44.4 µg/mL)	
c1cc(Nc2cc(C3CC3)[nH]n2)nc(NCC2CC2)n1 [Compound 8m]		250 (≈ 67.6 µg/mL)	IC50 (PknB; read-out: PknB IC50): 217 nM
c1cc(Nc2cc(C3CC3)[nH]n2)nc(NC2CCCC2)n1 [Compound 8n]	115	63 (≈ 17.9 µg/mL)	
CN(C)CCNc1cc(Nc2cc(C3CC3)[nH]n2)nc(-c2ccccc2)n1 [Compound 11a]	88	125 (≈ 45.4 µg/mL)	logD (physchem): 3.7
CN1CCN(c2cc(Nc3cc(C4CC4)[nH]n3)nc(-c3ccccc3)n2)CC1 [Compound 11b]	121	63 (≈ 23.7 µg/mL)	logD (physchem): 3.6
CN1CCC(CNc2cc(Nc3cc(C4CC4)[nH]n3)nc(-c3ccccc3)n2)CC1 [Compound 11c]		31 (≈ 12.5 µg/mL)	IC50 (PknB; read-out: PknB IC50): 55 nM; logD (physchem): 2.3
CN1CCC(Nc2cc(Nc3cc(C4CC4)[nH]n3)nc(-c3ccccc3)n2)CC1 [Compound 11d]	73	31 (≈ 12.1 µg/mL)	logD (physchem): 2.3
CN(C)[C@@H]1CCN(c2cc(Nc3cc(C4CC4)[nH]n3)nc(-c3ccccc3)n2)C1 [Compound 11e]	53	16 (≈ 6.23 µg/mL)	logD (physchem): 3.8
c1ccc(-c2nc(Nc3cc(C4CC4)[nH]n3)cc(OCCN3CCCC3)n2)cc1 [Compound 11f]	56	31 (≈ 12.1 µg/mL)	logD (physchem): 3.4
CN(C)[C@@H]1CCN(c2cc(Nc3cc(C4CC4)[nH]n3)nc(-c3cccc(C#N)c3)n2)C1 [Compound 15a]	56	63 (≈ 26.1 µg/mL)	
CN(C)CCNc1cc(Nc2cc(C3CC3)[nH]n2)nc(-c2cccc(C#N)c2)n1 [Compound 15b]	39	63 (≈ 24.5 µg/mL)	gain in PknB enzyme affinity (PknB): approximately twofold
CN1CCC(CNc2cc(Nc3cc(C4CC4)[nH]n3)nc(-c3cccc(C#N)c3)n2)CC1 [Compound 15c]	23	31 (≈ 13.3 µg/mL)	gain in PknB enzyme affinity (PknB): approximately twofold
CN1CCC(CNc2cc(Nc3cc(C4CC4)[nH]n3)nc(-c3cccc(S(C)(=O)=O)c3)n2)CC1 [Compound 15d]		63 (≈ 30.3 µg/mL)	IC50 (PknB; read-out: PknB IC50): 40 nM
CN(C)[C@@H]1CCN(c2cc(Nc3ccccn3)nc(-c3cccc(C#N)c3)n2)C1 [Compound 16a]	1990	31 (≈ 11.9 µg/mL)	
COc1ccnc(Nc2cc(N3CC[C@@H](N(C)C)C3)nc(-c3ccccc3)n2)c1 [Compound 16b]	1130	31 (≈ 12.1 µg/mL)	
CN(C)[C@@H]1CCN(c2cc(Nc3cc(Cl)ccn3)nc(-c3ccccc3)n2)C1 [Compound 16c]	176	8 (≈ 3.16 µg/mL)	kinase selectivity against human kinase panel [1]: improvement in selectivity relative to 11e
CN(C)[C@@H]1CCN(c2cc(Nc3cc(C(F)(F)F)ccn3)nc(-c3cccc(C#N)c3)n2)C1 [Compound 16d]		16 (≈ 7.26 µg/mL)	IC50 (PknB; read-out: PknB IC50): 40 nM
